Data as given in patent US20230404969A1, “COMPOSITIONS AND METHOD FOR EFFECTIVE MANAGEMENT OF PERITONITIS” (priority 2022, published 2023).

What was measured:
CD8+ T cells = assay: Zymosan peritonitis chronic study: peripheral blood CD8+ T cell population (flow cytometry); format: in vivo, mouse; settings: Withanone 2 mg/kg, day 36
Description: (§1) Peritoneal inflammation was induced by Zymosan A (Sigma Chemical) (Masashi et al. Zymosan, but Not Lipopolysaccharide, Triggers Severe and Progressive Peritoneal Injury Accompanied by complement Activation in a Rat Peritonitis Model) was prepared freshly in sterile, 0.9% w/v saline, and 0.5 ml was injected i.p. from day 0 to Day 5. The lymphocyte population in the peripheral blood was determined with a flow cytometer. Cells were phenotyped by flow cytometry with the following primary antibodies: CD4 (FITC) and CD8 (PE). Cells were gated broadly on all live lymphocyte cells, with only debris and multiple cell clusters being excluded. Analysis of mean fluorescence intensity was done and percentage cell population was evaluated. The test drugs were administered for 30 days after the induction of peritonitis. […]
Flow cytometry enables the characterization of cells and subcellular organelles on the basis of size and granularity and a number of different parameters defined by fluorescent probes. […] Fluorochrome labelled monoclonal antibodies directed against co-receptors CD4 and CD8 were used to quantify the lymphocyte subsets in a multiparametric flow cytometric assay. […]

[1] = system: Proteus mirabilis (Gram-negative); assay: Bacterial translocation from the gut into organs: P. mirabilis; format: in vivo; settings: Withanone 2 mg/kg; positive/6 mice
Description: (§2) Peritoneal inflammation was induced by Zymosan A (Sigma Chemical) (Masashi et al. Zymosan, but Not Lipopolysaccharide, Triggers Severe and Progressive Peritoneal Injury Accompanied by complement Activation in a Rat Peritonitis Model) was prepared freshly in sterile, 0.9% w/v saline, and 0.5 ml was injected i.p. from day 0 to Day 5. The lymphocyte population in the peripheral blood was determined with a flow cytometer. Cells were phenotyped by flow cytometry with the following primary antibodies: CD4 (FITC) and CD8 (PE). Cells were gated broadly on all live lymphocyte cells, with only debris and multiple cell clusters being excluded. Analysis of mean fluorescence intensity was done and percentage cell population was evaluated. The test drugs were administered for 30 days after the induction of peritonitis. On 36th day the peritoneal cavity was lavaged with 1.5 ml saline, and after a 30-s gentle manual massage, 0.5 ml exudate was retrieved, centrifuged at 3000 g for 3 min, and frozen at […] prior to cytokine and chemotactic-factor assessment.
(§3) Intestine serves as a barrier in preventing gut bacteria and/or endotoxin from spreading to organs and tissues. It is also known that bacterial translocation occurs in critically ill or immunocompromised patients, and the physical disruption of mucosal barrier in vivo rodent models seem to be a key factor Tor translocation (Deitch et al. Effect of hemorrhagic shock on bacterial translocation, intestinal morphology, and intestinal permeability in conventional and antibiotic-decontaminated rats; Critical Care Medicine; 1990 18(5)). Bacterial translocation from the gut into the peritoneal cavity and organs was analyzed. The mesenteric lymph nodes, liver, and spleen of mice, study group of 30, were removed using sterile instruments. The organs were then homogenized in 1 ml of sterile cooked meat broth and 50 μl of organ homogenate was spread on blood agar plates to detect aerobic bacteria and Eosin Methylene blue agar plates to detect specially for E. coli. These plates were then incubated at 37° C. for 2 days. […]

TNF-α = assay: Intracellular TNF-α estimation in LPS activated murine neutrophils (flow cytometry); format: cell-based; settings: 5 μg/ml, LPS 1 μg/ml, 3 h, ↑ upregulation
Description: Flowcytometric studies were carried out to determine the anti-inflammatory effect of active constituents of Withania somnifera extract on TNF-α and IL-1β cytokine expression in LPS activated murine neutrophils.
TNF-α and Interleukin 1 beta (IL-1β) cytokines play a major role in the pathogenesis of septic shock induced by LPS (Lipopolysaccharide) endotoxin injection. LPS is an important triggering factor for in vivo systemic inflammatory response. LPS activates neutrophils via engagement of TLR4 (Toll-like receptor 4), resulting in the induction of a characteristic proinflammatory phenotype and prolongation of cell lifespan. In brief, neutrophils extraction was performed by taking murine blood and centrifuging it at 250 g for 20 min. Middle layer was taken and layered with histopaque and incubated for 10 min. The samples were centrifuged at 700 g, the upper layer was taken and Facs Lysing solution added for the lysis of any traces of RBC. The samples were washed with PBS (200 g) for 10 min. Neutrophils were stimulated with. LPS (1 μg/ml) and incubated with test samples for 3 h, in CO2 incubator. […] A fluorescence trigger was set on the […] parameter of the gated neutrophil populations (10,000 events). Fluorescence compensation, data analysis, and data presentation was performed using Cell Quest Pro software (Beckton—Dickinson Biosciences, CA, USA). […]

IFN-γ = assay: Cytometric Bead Array of peritoneal fluid, chronic zymosan peritonitis: IFN-γ; format: in vivo, mouse; settings: 2 mg/kg, vs Zymosan control
Description: as §1, with “evaluated.” for “evaluated. The test drugs were administered for 30 days after the induction of peritonitis.”
The Cytometric Bead Array (Mouse Inflammation kit) was used to study cytokines in peritoneal fluid. […] Briefly, a mixture of 6 capture bead populations (50 μl) with distinct fluorescence intensities (detected in FL3) coated with antibodies specific for the above cytokines was mixed with each sample/standard (50 μl). […] Following acquisition of data by two colour cytometric analysis, the sample results were analysed using CBA software (BD Biosciences). […] Individual cytokine concentration ratios were indicated by their fluorescent intensities and was determined by interpolation from the corresponding standard curve.

E. Coli (Gram-negative) = assay: Bacterial translocation from the gut into organs: E. coli; format: in vivo; settings: Withanone 2 mg/kg; positive/6 mice
Description: as §2, §3

Which “Inhibition of CD8+ compared to T cell population of Zymosan control” value (CD8+ T cells) does the source give for `CC1=C(C)C(=O)O[C@@H]([C@@H](C)[C@@]2(O)CC[C@H]3[C@@H]4[C@@H]5O[C@@H]5[C@@]5(O)CC=CC(=O)[C@]5(C)[C@H]4CC[C@@]32C)C1` [Withanone] here?
Its value is 44%.

What about the “Bacterial translocation, Liver, p. mirabilis” value [1] of the same compound?
Its value is 0/6.

And the “Bacterial translocation, Mesenteric Lymph Nodes, p. mirabilis” value [1]?
Its value is 0/6.

What about the “Bacterial translocation, Spleen, p. mirabilis” value [1] of the same compound?
Its value is 0/6.

What about the “Percentage TNF-α inhibition compared to LPS control” value (TNF-α) of the same compound?
The value was 53%.

And the “Inhibition of IFN-γ” value (IFN-γ)?
The value was 44%.

What about the “Bacterial translocation, Liver, E. coli” value (E. Coli (Gram-negative)) of the same compound?
Its value is 1/6.

What about the “Bacterial translocation, Mesenteric Lymph Nodes, E. coli” value (E. Coli (Gram-negative)) of the same compound?
The value was 2/6.

What about the “Bacterial translocation, Spleen, E. coli” value (E. Coli (Gram-negative)) of the same compound?
Its value is 1/6.
